{"source": "patent US20040014794A1", "about": "“Use of hydroxypyridone-derivatives in wound healing” (priority 2002, published 2004)", "key": {"NMRI mice": {"tested_on": "NMRI mice", "test": "Mouse skin wound model (punch-through ear holes)", "settings": "dermal cream containing 1% CPX, daily", "experimental": "Both ears of adult NMRI mice were wounded under anesthesia with 100 mg/kg ketamine (Narketan®) and 5 mg/kg xylazine (Rompun®) by punch-through holes of 2 mm diameter using a standard ear-punching tool. The ears were treated daily with a common skin cream containing (Batrafen®) or not containing 1% (w/v) CPX. One ear was treated with CPX and the other ear with the control cream. The amount of cream was sufficient to cover the hole and was equally distributed over the entire ear.\nPunch-through ear holes of 2 mm diameter (a widespread way of marking mice in animal facilities) were treated daily with a commercially available dermal cream containing 1% CPX on one ear and a CPX-free but otherwise identical common dermal cream on the other ear, respectively."}, "[1]": {"tested_on": "chicken chorioallantoic membrane (CAM)", "description": "CAM assays were performed as described by Olivo, M. et al. (A Comparative Study on The Effects of Tumor Necrosis Factor-A (TNF-α), Human Angiogenic Factor (h-AF) and Basic Fibroblast Growth Factor (bFGF) on the Chorioallantoic Membrane of the Chick Embryo, (1992) Anat. Rec. 234, 105-115). Briefly, fertilized eggs (purchased from Lohmann Tierzucht, Cuxhaven, Germany) were incubated at 37° C. in a humidified atmosphere. The eggs were kept on their sides and turned upside down twice a day. After 6 days, a small hole was drilled through the shell into the air sac (visualized using a strong light source) and a window of approximately 0.5 cm^2 was sawed into the side of the egg. The window was sealed with tape and the eggs were reincubated until day 9, when 6-cyclohexyl-1-hydroxy-4-methyl-2(1H)-pyridone 2-aminoethanol salt (CPX) was applied to the CAM using the Elvax® method (see Olivo, M. et al. above). Therefore, ethylene/vinyl acetate copolymer beads (Elvax®) 40L-03, DuPont, provided by C. H. Erbslöh KG, Krefeld, Germany) were extensively washed in ethanol and dried under reduced pressure. The Elvax® beads were then dissolved in methylene chloride at 10% (w/v) and CPX was added to the desired concentration. One drop (40 μL) of this solution was pipetted onto a siliconized glass slide and the solvent was allowed to evaporate completely. Using forceps, the Elvax® disc was carefully lifted from the glass slides and placed onto the CAM. At day 11, the window was enlarged and the CAM was documented using a digital camera (Olympus) coupled to an ocular of a stereomicroscope.\nTherefore, the chicken CAM at day 9 of development was overlaid with inert polymer discs containing various concentrations of CPX or solvent only."}, "[2]": {"tested_on": "HIF-1 target genes VEGF, glucose transporter-1 (Glut-1) and aldolase", "test": "Northern blotting of mRNA of endogenous HIF-1 target genes in HepG2 cells", "format": "cell-based, human", "settings": "HepG2 cells treated for 24, 48 and 72 hours; control genes L28 and β-actin not induced", "description": "(§1) The HRCHO5 cells containing a stable transfected, HIF-1-dependent reporter gene were described previously (Wanner, R. M., et al. (2000), Epolones Induce Erythropoietin Expression Via Hypoxia-Inducible Factor-1α Activation, Blood 96, 1558-1565). The human HepG2 hepatoma cell line was obtained from American Type Culture Collection (ATCC numbers HB-8065). All cell lines were cultured in Dulbecco's modified Eagle's medium (DMEM, high glucose, Life Technologies) supplemented with 10% heat-inactivated FCS, 100 U/ml penicillin, 100 μg/ml streptomycin, 1× non-essential amino acids and 1 mM Na-pyruvate (all purchased from Life Technologies) in a humidified atmosphere containing 5% CO2 at 37° C. Oxygen partial pressures in the incubator (Forma Scientific, model 3131) were either 140 mm Hg (20% 02 v/v, normoxia) or 7 mm Hg (1% O2 v/v, hypoxia). Ciclopirox olamine (CPX), deferoxamine mesylate (DFX) and 2,2′-dipyridyl (DP) were purchased from Sigma. Stock solutions of CPX and DP were prepared in methanol at 0.5 M and 1 M, respectively. DFX was freshly dissolved at 10 mM into the cell culture medium."}, "HIF-1α protein": {"tested_on": "HIF-1α protein", "test": "HIF-1α protein induction in HepG2 hepatoma cells", "format": "cell-based, human", "settings": "for HIF-1α levels, combination with hypoxia: CPX plus hypoxia (1% O2)", "description": "as §1"}, "[3]": {"tested_on": "gram-positive and gram-negative bacteria", "settings": "cited from earlier work"}, "isolated rat kidneys": {"tested_on": "isolated rat kidneys", "test": "Isolated perfused rat kidney (ex vivo model)", "description": "Systemically administered DFX can induce ubiquitous HIF-1 stability and kidney-specific erythropoietin expression in mice (Wang, G. L., and Semenza, G. L. (1993), Desferrioxamine Induces Erythropoietin Gene Expression and Hypoxia-Inducible Factor 1 DNA-Binding Activity: Implications for Models of Hypoxia Signal Transduction, Blood 82, 3610-3615). Regarding a topical application of CPX as a HIF-1-inducing agent for therapeutic angiogenesis, it was important to test whether CPX could lead to a systemic induction of VEGF. […]"}, "VEGF promoter": {"tested_on": "VEGF promoter", "test": "VEGF promoter-driven luciferase reporter gene assay in transiently transfected HepG2 cells", "format": "cell-based, human", "settings": "increasing concentrations of CPX for 24 hours", "description": "The HRCHO5 cells containing a stable transfected, HIF-1-dependent reporter gene were described previously (Wanner, R. M., et al. (2000), Epolones Induce Erythropoietin Expression Via Hypoxia-Inducible Factor-1α Activation, Blood 96, 1558-1565). The human HepG2 hepatoma cell line was obtained from American Type Culture Collection (ATCC numbers HB-8065). All cell lines were cultured in Dulbecco's modified Eagle's medium (DMEM, high glucose, Life Technologies) supplemented with 10% heat-inactivated FCS, 100 U/ml penicillin, 100 μg/ml streptomycin, 1× non-essential amino acids and 1 mM Na-pyruvate (all purchased from Life Technologies) in a humidified atmosphere containing 5% CO2 at 37° C. […]\nHepG2 cells were transiently electroporated with a VEGF promoter-driven luciferase construct as described previously (Ikeda, E., et al. (1995), Hypoxia-Induced Transcriptional Activation and Increased mRNA Stability of Vascular Endothelial Growth Factor in C6 Glioma Cells, J. Biol. Chem. 270, 19761-19766). Following stimulation, transiently and stable transfected cells were lysed in passive lysis buffer (Promega) and the luciferase activity was determined using a luciferase assay kit according to the manufacturer's instructions (Promega) in a 96-well luminometer (MicroLumat LB96P, EG&G Berthold). […] Absorbances at 570 nm were determined in a 96-well photometer (Rainbow, SLT Labsystems). […]"}, "VEGF protein": {"tested_on": "VEGF protein", "test": "Accumulation of VEGF protein in the supernatant of the HepG2 cell culture", "format": "cell-based, human", "settings": "following 6 or 24 hours of treatment", "description": "as §1"}, "rabbit skin": {"tested_on": "rabbit skin", "settings": "1% CPX solution applied on rabbit skin over 20 days; cited from earlier work"}, "HIF-1": {"tested_on": "HIF-1", "settings": "systemically administered, mice; cited from earlier work"}, "[4]": {"settings": "higher CPX concentrations (33 μM and 100 μM)"}, "[5]": {"settings": "perfused 3 hours, normoxic, 0.1 μM to 100 μM"}}, "note": "Where a name gives a salt, the structure may show the parent alone. Read-outs that look alike come from different tables or passages of the source.", "data": [{"molecule": "Cc1cc(C2CCCCC2)n(O)c(=O)c1.NCCO", "note": "[CPX, 6-cyclohexyl-1-hydroxy-4-methyl-2(1H)-pyridone 2-aminoethanol salt]", "values": [{"measurement": "animals showing reddening of the wound margin", "setting": "NMRI mice", "value": "4 of 10"}, {"measurement": "reddening of the wound margin", "setting": "NMRI mice", "value": "can cause reddening"}, {"measurement": "angiogenesis in mouse skin wound model", "setting": "NMRI mice; ear holes of 2 mm diameter", "value": "can induce angiogenesis"}, {"measurement": "number of CAMs showing angiogenesis", "setting": "[1]; 50 mM CPX, all 7 control CAMs lacked angiogenesis", "value": 10}, {"measurement": "CAM angiogenesis", "setting": "[1]; polymer discs containing 5 mM CPX", "value": "indistinguishable from the controls"}, {"measurement": "CAM angiogenesis", "setting": "[1]; polymer discs containing 50 mM CPX, two days of incubation", "value": "consistently induced CAM angiogenesis"}, {"measurement": "toxicity to the chick embryo", "setting": "[1]; polymer discs containing 500 mM CPX", "value": "toxic"}, {"measurement": "expression of VEGF mRNA", "setting": "[2]", "value": "induced"}, {"measurement": "expression of aldolase mRNA", "setting": "[2]", "value": "induced"}, {"measurement": "expression of glucose transporter-1 (Glut-1) mRNA", "setting": "[2]", "value": "induced"}, {"measurement": "HIF-1α protein", "setting": "HIF-1α protein; 5 μM to 20 μM, normoxic HepG2 cells, after 6 and 24 hours of treatment", "value": "strongly induced"}, {"measurement": "HIF-1α levels, combination with hypoxia", "setting": "HIF-1α protein; after 6 hours", "value": "did not further increase"}, {"measurement": "HIF-1α levels, combination with hypoxia", "setting": "HIF-1α protein; after 24 hours of treatment", "value": "decreased"}, {"measurement": "effectiveness against gram-positive and gram-negative bacteria", "setting": "[3]", "value": "effective"}, {"measurement": "albumin and sodium excretion rates", "setting": "isolated rat kidneys; [4]", "value": "strong increase"}, {"measurement": "kidney function", "setting": "isolated rat kidneys; [4]", "value": "down regulation"}, {"measurement": "Glut-1 mRNA level", "setting": "isolated rat kidneys; [5]", "value": "did not induce"}, {"measurement": "VEGF mRNA level", "setting": "isolated rat kidneys; [5]", "value": "did not induce"}, {"measurement": "aldolase mRNA level", "setting": "isolated rat kidneys; [5]", "value": "did not induce"}, {"measurement": "Glut-1 mRNA level under hypoxic perfusion", "setting": "isolated rat kidneys; perfusion with 3% oxygen for 3 hours plus CPX", "value": "not further elevated"}, {"measurement": "luciferase activity (1180 bp VEGF promoter fragment)", "setting": "VEGF promoter", "value": "dose-dependent increase"}, {"measurement": "VEGF protein in the supernatant", "setting": "VEGF protein", "value": "increased in a dose-dependent manner"}, {"measurement": "reddening of experimentally wounded skin", "setting": "rabbit skin", "value": "persistent reddening"}, {"measurement": "reddening of healthy skin", "setting": "rabbit skin", "value": "occasionally transient reddening"}]}, {"molecule": "c1ccc(-c2ccccn2)nc1", "note": "[DP, 2,2′-dipyridyl]", "values": [{"measurement": "expression of VEGF mRNA", "setting": "[2]", "value": "induced"}, {"measurement": "expression of aldolase mRNA", "setting": "[2]", "value": "induced"}, {"measurement": "expression of glucose transporter-1 (Glut-1) mRNA", "setting": "[2]", "value": "induced"}]}, {"molecule": "CC(=O)N(O)CCCCCNC(=O)CCC(=O)N(O)CCCCCNC(=O)CCC(=O)N(O)CCCCCN", "note": "[DFX, deferoxamine mesylate]", "values": [{"measurement": "kidney-specific erythropoietin expression", "setting": "HIF-1", "value": "can induce"}, {"measurement": "ubiquitous HIF-1 stability", "setting": "HIF-1", "value": "can induce"}, {"measurement": "expression of VEGF mRNA", "setting": "[2]", "value": "induced"}, {"measurement": "expression of aldolase mRNA", "setting": "[2]", "value": "induced"}, {"measurement": "expression of glucose transporter-1 (Glut-1) mRNA", "setting": "[2]", "value": "induced"}]}]}
